Measurements reported in patent publication US12655116B2, “Substituted isophthalic acid diamides” (Bayer Aktiengesellschaft, priority 2020, dated 2026).

Columns and labels:
ABUTH [1] = experiment: Pre-emergence herbicidal action against ABUTH; assay type: in vivo, Abutilon theophrasti; conditions: Abutilon theophrasti, 504 h
Method in brief: (§1)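 Greenhouse pots of sandy loam held seeds covered with soil, onto which the compound was applied before emergence. An aqueous suspension or emulsion of WP or EC was used at 600 to 800 l/ha with 0.2% wetting agent. Percent damage was judged visually at 3 weeks.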

AMARE = experiment: Pre-emergence herbicidal action against AMARE; assay type: in vivo, Amaranthus retroflexus
Method in brief: as §1

ECHCG [2] = experiment: Pre-emergence herbicidal action against ECHCG; assay type: in vivo, Echinochloa crus-galli; conditions: 80 g/ha
Method in brief: as §1

MATIN [3] = experiment: Pre-emergence herbicidal action against MATIN; assay type: in vivo, Matricaria inodora; conditions: Tripleurospermum inodorum, 504 h
Method in brief: as §1

PHBPU [4] = experiment: Pre-emergence herbicidal action against PHBPU; assay type: in vivo, Pharbitis purpurea; conditions: dosage 80 g/ha
Text: Seeds of monocotyledonous and dicotyledonous weed plants and crop plants are laid out in sandy loam soil in wood-fiber pots and covered with soil. The compounds of the invention, formulated in the form of wettable powders (WP) or as emulsion concentrates (EC), are then applied to the surface of the covering soil in the form of an aqueous suspension or emulsion at a water application rate equivalent to 600 to 800 l/ha, with addition of 0.2% wetting agent. After the treatment, the pots are placed in a greenhouse and kept under good growth conditions for the trial plants. The damage to the test plants is scored visually after a test period of 3 weeks by comparison with untreated controls (herbicidal activity in percent (%): 100% activity=the plants have died, 0% activity=like control plants). […] The tables below illustrate, in an illustrative manner, the post-emergence herbicidal action of the compounds of the invention, the herbicidal activity being stated in percent.

SETVI = experiment: Pre-emergence herbicidal action against SETVI; assay type: in vivo, Setaria viridis
Method in brief: as §1

VERPE [5] = experiment: Pre-emergence herbicidal action against VERPE; assay type: in vivo, Veronica persica
Method in brief: as §1

VIOTR [6] = experiment: Pre-emergence herbicidal action against VIOTR; assay type: in vivo, Viola tricolor
Method in brief: as §1

DIGSA [7] = experiment: Pre-emergence herbicidal action against DIGSA; assay type: in vivo, Digitaria sanguinalis
Method in brief: as §1

ABUTH [8] = experiment: Post-emergence herbicidal action against ABUTH; assay type: in vivo, Abutilon theophrasti; conditions: Abutilon theophrasti, 504 h, visual assessment about 3 weeks after treatment vs untreated controls
Method in brief: (§2)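 A WP or EC formulation diluted in water with 0.2% wetting agent was sprayed at 600 to 800 l/ha onto one-leaf-stage plants grown in sandy loam. About 3 weeks later, action was rated visually in percent, 100% being dead plants.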

ECHCG [9] = experiment: Post-emergence herbicidal action against ECHCG; assay type: in vivo, Echinochloa crus-galli; conditions: dosage 20 g/ha
Method in brief: as §2

MATIN [10] = experiment: Post-emergence herbicidal action against MATIN; assay type: in vivo, Matricaria inodora; conditions: Tripleurospermum inodorum, 504 h
Method in brief: as §2

PHBPU [11] = experiment: Post-emergence herbicidal action against PHBPU; assay type: in vivo, Pharbitis purpurea; conditions: Ipomoea purpurea, 504 h
Method in brief: as §2

VERPE [12] = experiment: Post-emergence herbicidal action against VERPE; assay type: in vivo, Veronica persica; conditions: 20 g/ha
Method in brief: as §2

VIOTR [13] = experiment: Post-emergence herbicidal action against VIOTR; assay type: in vivo, Viola tricolor; conditions: Viola tricolor, 504 h, 20 g/ha
Method in brief: as §2

DIGSA [14] = experiment: Post-emergence herbicidal action against DIGSA; assay type: in vivo, Digitaria sanguinalis; conditions: Digitaria sanguinalis, 504 h
Method in brief: as §2

ALOMY = experiment: Pre-emergence herbicidal action against ALOMY; assay type: in vivo, Alopecurus myosuroides; conditions: 80 g/ha, pre-emergence, scored visually after 3 weeks vs untreated controls (100% = plants have died, 0% = like control plants)
Method in brief: as §1

[15] = 80 g/ha, scored visually after 3 weeks vs untreated controls (100% = plants have died, 0% = like control plants)

CCNC(=O)c1c(C(F)(F)F)ccc(C(=O)Nc2nnnn2C)c1C1CC1 [Example 1-287]
pest or weed control at 80 g/ha (ABUTH [1]; [15]): 100% | pest or weed control at 20 g/ha (ABUTH [1]; dosage 20 g/ha, scored visually after 3 weeks vs untreated controls, 100% = plants have died, 0% = like control plants, read-out: Pre-emergence action against ABUTH (herbicidal activity in percent)): 100% | pest or weed control at 20 g/ha (AMARE; Amaranthus retroflexus, 504 h, 20 g/ha, scored visually after 3 weeks vs untreated controls, 100% = plants have died, 0% = like control plants): 100% | pest or weed control at 80 g/ha (AMARE; Amaranthus retroflexus, 504 h, 80 g/ha, scored visually after 3 weeks vs untreated controls, 100% = plants have died, 0% = like control plants): 100% | pest or weed control at 80 g/ha (ECHCG [2]; Echinochloa crus-galli, 504 h): 90% | pest or weed control at 20 g/ha (MATIN [3]; dosage 20 g/ha): 100% | pest or weed control at 80 g/ha (MATIN [3]; dosage 80 g/ha): 100% | pest or weed control at 80 g/ha (PHBPU [4]; Ipomoea purpurea, 504 h): 100% | pest or weed control at 20 g/ha (SETVI; Setaria viridis, 504 h, dosage 20 g/ha): 90% | pest or weed control at 80 g/ha (SETVI; Setaria viridis, 504 h, dosage 80 g/ha): 100% | pest or weed control at 80 g/ha (VERPE [5]; Veronica persica, 504 h, dosage 80 g/ha): 90% | pest or weed control at 20 g/ha (VIOTR [6]; Viola tricolor, 504 h, dosage 20 g/ha): 100% | pest or weed control at 80 g/ha (VIOTR [6]; Viola tricolor, 504 h, dosage 80 g/ha): 100% | pest or weed control at 20 g/ha (DIGSA [7]; Digitaria sanguinalis, 504 h, dosage 20 g/ha): 100% | pest or weed control at 80 g/ha (DIGSA [7]; Digitaria sanguinalis, 504 h, dosage 80 g/ha): 100% | pest or weed control at 5 g/ha (ABUTH [8]; dosage 5 g/ha): 90% | pest or weed control at 20 g/ha (ABUTH [8]; dosage 20 g/ha): 100% | pest or weed control at 20 g/ha (ECHCG [9]; Echinochloa crus-galli, 504 h): 100% | pest or weed control at 5 g/ha (MATIN [10]; dosage 5 g/ha): 80% | pest or weed control at 20 g/ha (MATIN [10]; dosage 20 g/ha): 90% | pest or weed control at 5 g/ha (PHBPU [11]; dosage 5 g/ha): 90% | pest or weed control at 20 g/ha (PHBPU [11]; dosage 20 g/ha): 100% | pest or weed control at 20 g/ha (VERPE [12]; Veronica persica, 504 h): 80% | pest or weed control at 20 g/ha (VIOTR [13]): 80% | pest or weed control at 5 g/ha (DIGSA [14]; 5 g/ha): 100% | pest or weed control at 20 g/ha (DIGSA [14]; 20 g/ha): 100%

CCn1nnnc1NC(=O)c1ccc(C(F)(F)F)c(C(=O)NCC2CCCO2)c1C (centres unmarked) [Example 2-37]
Pre-emergence action against ALOMY (herbicidal activity) (ALOMY): 90% | Pre-emergence action against AMARE in % (AMARE; 20 g/ha, scored visually after 3 weeks vs untreated controls, 100% = plants have died, 0% = like control plants): 90% | Pre-emergence action against AMARE in % (AMARE; [15]): 100% | Pre-emergence action against ECHCG in % (ECHCG [2]): 80% | Pre-emergence action against PHBPU in % (PHBPU [4]): 80% | Pre-emergence action against SETVI in % (SETVI; dosage 80 g/ha): 100% | Pre-emergence action against VERPE in % (VERPE [5]; dosage 20 g/ha): 80% | Pre-emergence action against VERPE in % (VERPE [5]; dosage 80 g/ha): 80% | Pre-emergence action against VIOTR in % (VIOTR [6]; dosage 80 g/ha): 100% | Pre-emergence action against DIGSA in % (DIGSA [7]; dosage 80 g/ha): 100% | Post-emergence action against ECHCG in % (ECHCG [9]): 80% | Post-emergence action against VERPE in % (VERPE [12]): 80%
